# Laboratory results reported in PubChem BioAssay (NCI).
#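 Values below derive from 48-hour exposures of cells grown in 96-well plates, with endpoints linearly interpolated between the two concentrations bracketing the appropriate inhibition level. GI50 = concentration required for 50% inhibition of growth. TGI denotes the concentration required for complete inhibition of growth.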
# Assays:
# Assay in all cases: NCI anticancer screen, dose series, 48 h
# TK-10 renal = system: TK-10 renal
# ACHN renal = system: ACHN renal
# SN12C renal = system: SN12C renal
# OVCAR-8 ovarian = system: OVCAR-8 ovarian
# NCI/ADR-RES ovarian = system: NCI/ADR-RES ovarian
# HL-60(TB) leukemia = system: HL-60(TB) leukemia
# HCC-2998 colon = system: HCC-2998 colon
# OVCAR-5 ovarian = system: OVCAR-5 ovarian
# HS 578T breast = system: HS 578T breast
# U251 CNS = system: U251 CNS
# HCT-15 colon = system: HCT-15 colon
# IGROV1 ovarian = system: IGROV1 ovarian
# HOP-92 NSCLC = system: HOP-92 NSCLC
# LOX IMVI melanoma = system: LOX IMVI melanoma
# SF-539 CNS = system: SF-539 CNS
# COLO 205 colon = system: COLO 205 colon
# SK-OV-3 ovarian = system: SK-OV-3 ovarian
# NCI-H23 lung = system: NCI-H23 lung
# NCI-H460 lung = system: NCI-H460 lung
# M14 melanoma = system: M14 melanoma
# SK-MEL-28 melanoma = system: SK-MEL-28 melanoma
# SK-MEL-5 melanoma = system: SK-MEL-5 melanoma
# SNB-75 CNS = system: SNB-75 CNS
# MALME-3M melanoma = system: MALME-3M melanoma
# T-47D breast = system: T-47D breast
# A549 NSCLC = system: A549 NSCLC
# DU-145 prostate = system: DU-145 prostate
# SNB-19 CNS = system: SNB-19 CNS
# A498 renal = system: A498 renal
# NCI-H226 lung = system: NCI-H226 lung
# UO-31 renal = system: UO-31 renal
# CCRF-CEM leukemia = system: CCRF-CEM leukemia
# KM12 colon = system: KM12 colon
# 786-0 renal = system: 786-0 renal
# HOP-62 NSCLC = system: HOP-62 NSCLC
# PC-3 prostate = system: PC-3 prostate
# OVCAR-4 ovarian = system: OVCAR-4 ovarian
# CAKI-1 renal = system: CAKI-1 renal
# MDA-MB-231 breast = system: MDA-MB-231 breast
# BT-549 breast = system: BT-549 breast
# MOLT-4 leukemia = system: MOLT-4 leukemia
# RXF 393 renal = system: RXF 393 renal
# MCF7 breast = system: MCF7 breast
# HT29 colon = system: HT29 colon
# UACC-62 melanoma = system: UACC-62 melanoma
# NCI-H522 lung = system: NCI-H522 lung
# EKVX NSCLC = system: EKVX NSCLC
# SK-MEL-2 melanoma = system: SK-MEL-2 melanoma
# SF-295 CNS = system: SF-295 CNS
# HCT-116 colon = system: HCT-116 colon
# UACC-257 melanoma = system: UACC-257 melanoma
# MDA-MB-435 = system: MDA-MB-435
# SF-268 CNS = system: SF-268 CNS
# SW-620 colon = system: SW-620 colon
structure (smiles),measurement,setting,value
CCCCCCNC(=O)Oc1ccc(/C(=C(/C)c2ccc(Cl)cc2)c2ccc(OCCN3CCCC3)cc2)cc1,GI50,TK-10 renal,1620 nM
same,TGI,TK-10 renal,3.14 µM
same,GI50,ACHN renal,1710 nM
same,TGI,ACHN renal,3.08 µM
same,GI50,SN12C renal,1730 nM
same,TGI,SN12C renal,3.2 µM
same,GI50,OVCAR-8 ovarian,1720 nM
same,TGI,OVCAR-8 ovarian,3.36 µM
same,GI50,NCI/ADR-RES ovarian,1680 nM
same,TGI,NCI/ADR-RES ovarian,3.3 µM
same,GI50,HL-60(TB) leukemia,1630 nM
same,TGI,HL-60(TB) leukemia,3.74 µM
same,GI50,HCC-2998 colon,1650 nM
same,TGI,HCC-2998 colon,3.05 µM
same,GI50,OVCAR-5 ovarian,2730 nM
same,TGI,OVCAR-5 ovarian,10.1 µM
same,GI50,HS 578T breast,1660 nM
same,TGI,HS 578T breast,3.59 µM
same,GI50,U251 CNS,1540 nM
same,TGI,U251 CNS,2930 nM
same,GI50,HCT-15 colon,1500 nM
same,TGI,HCT-15 colon,3000 nM
same,GI50,IGROV1 ovarian,1740 nM
same,TGI,IGROV1 ovarian,3.28 µM
same,GI50,HOP-92 NSCLC,1160 nM
same,TGI,HOP-92 NSCLC,2420 nM
same,GI50,LOX IMVI melanoma,1590 nM
same,TGI,LOX IMVI melanoma,2950 nM
same,GI50,SF-539 CNS,1710 nM
same,TGI,SF-539 CNS,3.12 µM
same,GI50,COLO 205 colon,1860 nM
same,TGI,COLO 205 colon,3.36 µM
same,GI50,SK-OV-3 ovarian,1630 nM
same,TGI,SK-OV-3 ovarian,3.01 µM
same,GI50,NCI-H23 lung,1780 nM
same,TGI,NCI-H23 lung,3.31 µM
same,GI50,NCI-H460 lung,1760 nM
same,TGI,NCI-H460 lung,3.2 µM
same,GI50,M14 melanoma,1720 nM
same,TGI,M14 melanoma,3.18 µM
same,GI50,SK-MEL-28 melanoma,1720 nM
same,TGI,SK-MEL-28 melanoma,3.16 µM
same,GI50,SK-MEL-5 melanoma,1720 nM
same,TGI,SK-MEL-5 melanoma,3.15 µM
same,GI50,SNB-75 CNS,1790 nM
same,TGI,SNB-75 CNS,8.97 µM
same,GI50,MALME-3M melanoma,1710 nM
same,TGI,MALME-3M melanoma,3.24 µM
same,GI50,T-47D breast,1310 nM
same,TGI,T-47D breast,2880 nM
same,GI50,A549 NSCLC,1630 nM
same,TGI,A549 NSCLC,3.07 µM
same,GI50,DU-145 prostate,1920 nM
same,TGI,DU-145 prostate,3.46 µM
same,GI50,SNB-19 CNS,1850 nM
same,TGI,SNB-19 CNS,3.59 µM
same,GI50,A498 renal,3.93 µM
same,TGI,A498 renal,17 µM
same,GI50,NCI-H226 lung,2020 nM
same,TGI,NCI-H226 lung,4.47 µM
same,GI50,UO-31 renal,1240 nM
same,TGI,UO-31 renal,2520 nM
same,GI50,CCRF-CEM leukemia,1780 nM
same,TGI,CCRF-CEM leukemia,4.98 µM
same,GI50,KM12 colon,1980 nM
same,TGI,KM12 colon,3.74 µM
same,GI50,786-0 renal,1780 nM
same,TGI,786-0 renal,3.29 µM
same,GI50,HOP-62 NSCLC,1550 nM
same,TGI,HOP-62 NSCLC,2950 nM
same,GI50,PC-3 prostate,1520 nM
same,TGI,PC-3 prostate,2950 nM
same,GI50,OVCAR-4 ovarian,1840 nM
same,TGI,OVCAR-4 ovarian,3.75 µM
same,GI50,CAKI-1 renal,1480 nM
same,TGI,CAKI-1 renal,2820 nM
same,GI50,MDA-MB-231 breast,1730 nM
same,TGI,MDA-MB-231 breast,3.22 µM
same,GI50,BT-549 breast,1700 nM
same,TGI,BT-549 breast,3.2 µM
same,GI50,MOLT-4 leukemia,1730 nM
same,TGI,MOLT-4 leukemia,3.97 µM
same,GI50,RXF 393 renal,1700 nM
same,TGI,RXF 393 renal,3.26 µM
same,GI50,MCF7 breast,52.5 nM
same,TGI,MCF7 breast,1970 nM
same,GI50,HT29 colon,1620 nM
same,TGI,HT29 colon,3.19 µM
same,GI50,UACC-62 melanoma,1750 nM
same,TGI,UACC-62 melanoma,3.22 µM
same,GI50,NCI-H522 lung,1780 nM
same,TGI,NCI-H522 lung,3.37 µM
same,GI50,EKVX NSCLC,2180 nM
same,TGI,EKVX NSCLC,6.12 µM
same,GI50,SK-MEL-2 melanoma,1890 nM
same,TGI,SK-MEL-2 melanoma,3.51 µM
same,GI50,SF-295 CNS,1730 nM
same,TGI,SF-295 CNS,3.17 µM
same,GI50,HCT-116 colon,1510 nM
same,TGI,HCT-116 colon,3.1 µM
same,GI50,UACC-257 melanoma,1740 nM
same,TGI,UACC-257 melanoma,3.24 µM
same,GI50,MDA-MB-435,1790 nM
same,TGI,MDA-MB-435,3.25 µM
same,GI50,SF-268 CNS,1770 nM
same,TGI,SF-268 CNS,3.72 µM
same,GI50,SW-620 colon,1670 nM
same,TGI,SW-620 colon,3.13 µM
